Test results published in patent US20040149200A1, “Crystals of an oligosaccharides and process for preparation thereof” (priority 2001, published 2004).

Test: Storage stability of Oligosaccharide Crystals (I) and freeze-dried Oligosaccharide (I) powders (residual rate by HPLC)
Format: physicochemical
Conditions: 105° C. in the atmosphere under ordinary pressure
Method: The storage stability of Oligosaccharide Crystals (I) obtained in Examples 1 to 3 and freeze-dried Oligosaccharide (I) powders obtained in Reference Examples 1 to 3 was examined by keeping them at 105° C. in the atmosphere under ordinary pressure for 20 days and measuring the residual rate of Oligosaccharides (I).
The residual rate of Oligosaccharides (I) in the samples was measured by high performance liquid chromatography (HPLC) and expressed in terms of HPLC purity (%)
Measurement conditions for HPLC are as follows.
Analyzer: product of Dionex Corporation
Column temperature: 30° C.
Mobile phase: 10-100% aqueous solution of NaOH
(500 mmol/L) (Gradient elution in 11 minutes)
Detection: electrochemical detection (PAD method)

CC(=O)N[C@H]1[C@H](O[C@H]2[C@@H](O)[C@@H](CO)O[C@@H](O[C@H]3[C@H](O)[C@@H](O)C(O)O[C@@H]3CO)[C@@H]2O)O[C@H](CO)[C@@H](O[C@@H]2O[C@H](CO)[C@H](O)[C@H](O)[C@H]2O)[C@@H]1O (stereo partly drawn) [Crystals No. 2, Galβ1, 4GlcNAcβ1, 3Galβ1, 4Glc]
Residual rate of oligosaccharides: HPLC purity (%) (days that passed: 0): 99.3%
Residual rate of oligosaccharides: HPLC purity (%) (days that passed: 1): 99.0%
Residual rate of oligosaccharides: HPLC purity (%) (days that passed: 4): 99.2%
Residual rate of oligosaccharides: HPLC purity (%) (days that passed: 7): 99.0%
Residual rate of oligosaccharides: HPLC purity (%) (days that passed: 20): 98.8%

CC(=O)N[C@H]1[C@H](O[C@H]2[C@@H](O)[C@@H](CO)O[C@@H](O[C@H]3[C@H](O)[C@@H](O)C(O)O[C@@H]3CO)[C@@H]2O)O[C@H](CO)[C@@H](O)[C@@H]1O (stereo partly drawn) [Freeze-dried GlcNAcβ1, 3Gal-β1, 4Glc powders] [GlcNAcβ1,3Galβ1,4Glc]
Residual rate of oligosaccharides: HPLC purity (%) (days that passed: 0): 99.8%
Residual rate of oligosaccharides: HPLC purity (%) (days that passed: 1): 99.7%
Residual rate of oligosaccharides: HPLC purity (%) (days that passed: 4): 97.0%
Residual rate of oligosaccharides: HPLC purity (%) (days that passed: 7): 98.8%
Residual rate of oligosaccharides: HPLC purity (%) (days that passed: 20): 93.8%

CC(=O)N[C@H]1[C@H](O[C@H]2[C@@H](O)[C@@H](CO)O[C@@H](O[C@H]3[C@H](O)[C@@H](O)C(O)O[C@@H]3CO)[C@@H]2O)O[C@H](CO)[C@@H](O)[C@@H]1O (stereo partly drawn) [Crystals No. 1, GlcNAcβ1, 3Galβ1, 4Glc]
Residual rate of oligosaccharides: HPLC purity (%) (days that passed: 0): 98.0%
Residual rate of oligosaccharides: HPLC purity (%) (days that passed: 1): 99.7%
Residual rate of oligosaccharides: HPLC purity (%) (days that passed: 4): 99.7%
Residual rate of oligosaccharides: HPLC purity (%) (days that passed: 7): 99.7%
Residual rate of oligosaccharides: HPLC purity (%) (days that passed: 20): 98.9%

CC(=O)N[C@H]1[C@H](O[C@H]2[C@@H](O)[C@@H](CO)O[C@@H](O[C@H]3[C@H](O)[C@@H](O)C(O)O[C@@H]3CO)[C@@H]2O)O[C@H](CO)[C@@H](O[C@@H]2O[C@H](CO)[C@H](O)[C@H](O[C@@H]3O[C@H](CO)[C@@H](O)[C@H](O)[C@H]3NC(C)=O)[C@H]2O)[C@@H]1O (stereo partly drawn) [Crystals No. 3, GlcNAcβ1, 3Galβ1, 4GlcNAcβ1, 3Galβ1, 4Glc]
Residual rate of oligosaccharides: HPLC purity (%) (days that passed: 0): 98.8%
Residual rate of oligosaccharides: HPLC purity (%) (days that passed: 1): 99.3%
Residual rate of oligosaccharides: HPLC purity (%) (days that passed: 4): 99.0%
Residual rate of oligosaccharides: HPLC purity (%) (days that passed: 7): 99.0%
Residual rate of oligosaccharides: HPLC purity (%) (days that passed: 20): 99.3%

CC(=O)N[C@H]1[C@H](O[C@H]2[C@@H](O)[C@@H](CO)O[C@@H](O[C@H]3[C@H](O)[C@@H](O)C(O)O[C@@H]3CO)[C@@H]2O)O[C@H](CO)[C@@H](O[C@@H]2O[C@H](CO)[C@H](O)[C@H](O)[C@H]2O)[C@@H]1O (stereo partly drawn) [Freeze-dried Galβ1, 4GlcNAc-β1, 3Galβ1, 4Glc powders] [Galβ1,4GlcNAcβ1,3Galβ1,4Glc]
Residual rate of oligosaccharides: HPLC purity (%) (days that passed: 0): 99.3%
Residual rate of oligosaccharides: HPLC purity (%) (days that passed: 1): 98.6%
Residual rate of oligosaccharides: HPLC purity (%) (days that passed: 4): 97.6%
Residual rate of oligosaccharides: HPLC purity (%) (days that passed: 7): 96.2%
Residual rate of oligosaccharides: HPLC purity (%) (days that passed: 20): 90.9%

CC(=O)N[C@H]1[C@H](O[C@H]2[C@@H](O)[C@@H](CO)O[C@@H](O[C@H]3[C@H](O)[C@@H](O)C(O)O[C@@H]3CO)[C@@H]2O)O[C@H](CO)[C@@H](O[C@@H]2O[C@H](CO)[C@H](O)[C@H](O[C@@H]3O[C@H](CO)[C@@H](O)[C@H](O)[C@H]3NC(C)=O)[C@H]2O)[C@@H]1O (stereo partly drawn) [Freeze-dried GlcNAcβ1, 3Gal-β1, 4GlcNAcβ1, 3Galβ1, 4Glc powd] [GlcNAcβ1,3Galβ1,4GlcNAcβ1,3Galβ1,4Glc]
Residual rate of oligosaccharides: HPLC purity (%) (days that passed: 0): 98.6%
Residual rate of oligosaccharides: HPLC purity (%) (days that passed: 1): 98.2%
Residual rate of oligosaccharides: HPLC purity (%) (days that passed: 4): 97.4%
Residual rate of oligosaccharides: HPLC purity (%) (days that passed: 7): 95.4%
Residual rate of oligosaccharides: HPLC purity (%) (days that passed: 20): 85.2%
